Measured values published in patent publication US20150329512A1, “METHOD AND PHARMACEUTICAL COMPOSITION FOR TREATING LUNG CANCER” (National Dong Hua University, priority 2014, published 2015).

Assays:
[1] = test system: A549 cells; test: Cell cycle analysis by flow cytometer (PI staining); assay type: cell-based, human
Method: (§1) The results of Example 2 in cell viability hinted the effects of HCD, PG, and Dox on arresting cell cycle. In this example, the phase of cell cycle of A549 cells and Anti-Dox-A549 cells after the treatment listed in Table 1 was determined by flow cytometer. Briefly, 7×10^4 cells per well were to inoculated in 12-wells plate and incubated overnight at 37° C., 5% CO2. Then, cells were treated according to the treatment listed in Table 1 by indicated time period. After treatment, cells were harvested by trypsin and fixed with 70% ethanol at −20° C. for at least 3 hr. The cells were washed in cold PBS twice and then incubated with 1 ml (v/v) staining solution (20 μg/m1 propidium iodide (PI), 0.1% Triton X-100, 0.2 mg/ml Rnase) at 37° C. for 30 minutes. Lastly, cells were analyzed by flow cytometer (Cytomics™ FC500, Backman, Fullerton, Calif., USA). Data from 10,000 cells were collected for each experimental group.

[2] = test system: Anti-Dox-A549 cells; test: as above; assay type: cell-based, human
Method: as §1

[3] = test system: A549 cells; test: MTT assay, cell viability; assay type: cell-based, human; conditions: Homo sapiens, 24 hr treatment
Method: (§2) A549 (lung cancer cell line, non-resistance) and Anti-Dox-A549 (lung cancer cell line with resistance to Doxorubicin) were maintained in DMEM supplemented with 10% fetal bovine serum (FBS, Gibco), pH 7.4, 37° C. and with continuous circulation of 5% CO2. The medium was changed every 2 days and the cells were trypsinized with trypsin/EDTA when reaching 80%-90% confluence.
(§3) A549 and Anti-Dox-A549 were treated by the following treatment (Table 1) for 24 or 48 hr for examining the effects of HCD, PG, and Dox on their viability.
(§4) Dox1is referred as Dox of 1 μM; Dox2.5 is referred as Dox of 2.5 μM; Dox5 is referred as Dox of 5 μM; Dox10 is referred as Dox of 10 μM; Dox100 is referred as Dox of 100 μM. HCD2.5 is referred as HCD of 2.5 μM; HCD10 is referred as HCD of 10 μM; HCD25 is referred as HCD of 25 μM; HCD50 is referred as HCD of 50 μM. PG2.5 is referred as PG of 2.5 μM; PG5 is referred as PG of 5 μM; PG10 is referred as PG of 10 μM; PG20 is referred as PG of 20 μM.
(§5) In this example, the effects of HCD, PG, and Dox on the viability of A549 and anti-Dox-A549 were examined. The MTT assay was employed for this purpose. The MTT (3-(4-,5-dimethylthiazol-2-yl)-2,5-diphenyltetrazolium bromide) assay is a common colorimetric method in the field for cell viability analysis. MTT (yellow tetrazolium salt) is reduced to a purple formazan by living cells and detection to the purple formazan can be calculated as the cell viability.
(§6) Briefly, cells (A549 or Anti-Dox-A549) were seeded in 96-well plate (7×10^3 cell per well) and incubated overnight (37° C., 5% CO2).

[4] = test system: Anti-Dox-A549 cells; test: MTT assay, cell viability; assay type: cell-based, human; conditions: Homo sapiens, 24 hr treatment
Method: as §2, §3, §4, §5, §6

[5] = test system: human lung cancer in lung of mice; test: Mouse model bearing human lung cancer in lung (A549 or Anti-Dox-A549 cells injected); conditions: HCD 0.0318 or 1.272 mg/kg, PG 0.1615 or 0.646 mg/kg body weight, IT injection to the lung, monitored every five days for thirty days
Method: The animal experiments were approved by the National Dong-Hwa University Animal Ethics Committee and the experimental protocols were used according to the “Guide for the Care and Use of Laboratory Animals” of National Dong-Hwa University. 1×10^7 of A549 cells or Anti-Dox-A549 cells were suspended in PBS to prepare cell suspensions. On day 0, C57/BL6 mice (6-8 weeks old, n=6) were weighted and anesthetic using pentobarbital (5 mg/ml). Then, the mice were injected with the cell suspension (1×10^7 cells per mouse) into the lung by IT. The injection was repeated every 7 days for 21 days. Another group of mice were injected with 10% EtOH as comparative group according to the same procedure set forth above.
After the establishment of human lung cancer in the experimental mice, the mice were maintained for one more week and then treated with HCD (0.0318 or 1.272 mg/kg body weight, in 10% ETOH with PBS), PG (0.1615 or 0.646 mg/kg body weight, in 10% ETOH with PBS) or 10% EtOH by IT injection (intrathecal injection) to the lung. The body weight was monitored every five days for thirty days. After thirty days, the mice were sacrificed and the lungs were checked for marker of human lung adenocarcinoma by H&E and IHC staining. The livers, kidneys and spleens of the mice were also examined to confirm the cytotoxicity of HCD and PG and to see if there was any metastasis happened.

[6] = Dox 5 μM, 24 hr, Table 7 (head prints Anti-Dox-A549; b90: A549 cells)
[7] = Dox 10 μM, 24 hr, Table 7 (head prints Anti-Dox-A549; b90: A549 cells)
[8] = Dox 20 μM, 24 hr, Table 7 (head prints Anti-Dox-A549; b90: A549 cells)
[9] = Dox 5 μM, 24 hr, Anti-Dox-A549 (Table 6)
[10] = Dox 10 μM, 24 hr, Anti-Dox-A549 (Table 6)
[11] = Dox 20 μM, 24 hr, Anti-Dox-A549 (Table 6)
[12] = PG 2.5 μM, 12 hr, Anti-Dox-A549
[13] = PG 2.5 μM, 24 hr, Anti-Dox-A549

## COc1cccc2c1C(=O)c1c(O)c3c(c(O)c1C2=O)C[C@@](O)(C(=O)CO)C[C@@H]3O[C@H]1C[C@H](N)[C@H](O)[C@H](C)O1 [Dox, Doxorubicin]
[1]; A549 cells, Dox 5, 10, or 20 μM (Table 7)
  cell cycle effect: increased at Sub G1 phase and showed cell arrest at sub G1 phase
[1]; [6]
  G0/G1 (%): 50.3 ± 0.9 %
  G2/M (%): 15.2 ± 1.6 %
  S (%): 23.5 ± 0.7 %
  Sub G1 (%): 5.8 ± 0.5 %
[1]; [7]
  G0/G1 (%): 50.2 ± 1.4 %
  G2/M (%): 17 ± 0.3 %
  S (%): 20.3 ± 0.9 %
  Sub G1 (%): 7.4 ± 2.3 %
[1]; [8]
  G0/G1 (%): 37.3 ± 2.1 %
  G2/M (%): 21.5 ± 1.6%
  S (%): 23.5 ± 0.7 %
  Sub G1 (%): 9.0 ± 0.8 %
[2]; Anti-Dox-A549 cells, Dox 5, 10, or 20 μM (Table 6)
  cell cycle effect: increased at Sub G1 phase and showed cell arrest at S phase
[2]; [9]
  G0/G1 (%): 54.7 ± 1.3 %
  G2/M (%): 9.9 ± 0.7 %
  S (%): 24.1 ± 0.5 %
  Sub G1 (%): 6.4 ± 0.6 %
[2]; [10]
  G0/G1 (%): 62.8 ± 0.6%
  G2/M (%): 9.4 ± 0.9 %
  S (%): 19.9 ± 0.1 %
  Sub G1 (%): 4.6 ± 0.3 %
[2]; [11]
  G0/G1 (%): 58.1 ± 3.4%
  G2/M (%): 12.4 ± 1.5%
  S (%): 18.7 ± 0.4 %
  Sub G1 (%): 6.2 ± 0.6 %
[3]
  IC50: 5 to 10 µM
[4]
  IC50: ~100 µM

## CCCCCC1=C/C(=C/c2[nH]c(-c3ccc[nH]3)cc2OC)N=C1C [PG, Prodigiosin]
[1]; PG 2.5 μM, 6 hr, A549
  G0/G1 (%): 46.3 ± 3.4 %
  G2/M (%): 32.3 ± 3.1 %
  S (%): 17.3 ± 1.2 %
  Sub G1 (%): 0.3 ± 0.1%
[1]; PG 2.5 μM, 12 hr, A549
  G0/G1 (%): 62.7 ± 2.7%
  G2/M (%): 27.6 ± 0.7 %
  S (%): 6.6 ± 2.1 %
  Sub G1 (%): 0.4 ± 0.2%
[1]; PG 2.5 μM, 24 hr, A549
  G0/G1 (%): 85 ± 0.6^ %
  G2/M (%): 11.6 ± 0.7%
  S (%): 1.9 ± 0.15 %
  Sub G1 (%): 0.26 ± 0.05%
[1]; PG 5 μM, 6 hr, A549
  G0/G1 (%): 42.9 ± 2.1 %
  G2/M (%): 34.8 ± 0.9 %
  S (%): 18.2 ± 0.8 %
  Sub G1 (%): 0.26 ± 0.05%
[1]; PG 5 μM, 12 hr, A549
  G0/G1 (%): 53.3 ± 1.2 %
  G2/M (%): 33.1 ± 0.2 %
  S (%): 10.0 ± 2.0 %
  Sub G1 (%): 0.36 ± 0.2%
[1]; PG 5 μM, 24 hr, A549
  G0/G1 (%): 76.2 ± 8.1 %
  G2/M (%): 22.2 ± 1.1%
  S (%): 3.0 ± 0.75 %
  Sub G1 (%): 0.23 ± 0.05%
[1]; PG 10 μM, 6 hr, A549
  G0/G1 (%): 43.8 ± 3.1 %
  G2/M (%): 27 ± 2.9%
  S (%): 18.8 ± 0.5 %
  Sub G1 (%): 0.33 ± 0.05%
[1]; PG 10 μM, 12 hr, A549
  G0/G1 (%): 41.6 ± 1.3 %
  G2/M (%): 29.1 ± 3.0 %
  S (%): 16.6 ± 1.4%
  Sub G1 (%): 0.46 ± 0.1%
[1]; PG 10 μM, 24 hr, A549
  G0/G1 (%): 43.8 ± 2.4 %
  G2/M (%): 26.5 ± 10.0%
  S (%): 9.1 ± 1.7 %
  Sub G1 (%): 0.9 ± 0.7%
[2]; PG 2.5 μM, 6 hr, Anti-Dox-A549
  G0/G1 (%): 58.9 ± 7.1%
  G2/M (%): 23.5 ± 1.9%
  S (%): 18.5 ± 0.5%
  Sub G1 (%): 2.2 ± 0.1 %
[2]; [12]
  G0/G1 (%): 65.3 ± 2.9%
  G2/M (%): 17.2 ± 6.5%
  S (%): 13.8 ± 4.7%
  Sub G1 (%): 1.6 ± 1.2%
[2]; [13]
  G0/G1 (%): 81.8 ± 5.7%
  G2/M (%): 8.8 ± 1.4%
  S (%): 3.1 ± 1.3 %
  Sub G1 (%): 0.9 ± 0.3%
[2]; PG 5 μM, 6 hr, Anti-Dox-A549
  G0/G1 (%): 56 ± 1.3%
  G2/M (%): 23.6 ± 2.3%
  S (%): 18.7 ± 0.8%
  Sub G1 (%): 1.9 ± 0.3%
[2]; PG 5 μM, 12 hr, Anti-Dox-A549
  G0/G1 (%): 62.7 ± 4.7 %
  G2/M (%): 19.2 ± 6.9%
  S (%): 16.8 ± 5.5%
  Sub G1 (%): 2.9 ± 1.0%
[2]; PG 5 μM, 24 hr, Anti-Dox-A549
  G0/G1 (%): 76.2 ± 6.0%
  G2/M (%): 13.8 ± 1.7%
  S (%): 3.7 ± 2.0 %
  Sub G1 (%): 4.3 ± 5.3%
[2]; PG 10 μM, 6 hr, Anti-Dox-A549
  G0/G1 (%): 54.6 ± 3.0 %
  G2/M (%): 19.8 ± 6.6%
  S (%): 22.9 ± 3.4 %
  Sub G1 (%): 2 ± 0.6%
[2]; PG 10 μM, 12 hr, Anti-Dox-A549
  G0/G1 (%): 53.2 ± 2.5 %
  G2/M (%): 22.8 ± 6.4%
  S (%): 21.4 ± 3.7%
  Sub G1 (%): 1.8 ± 0.2%
[2]; PG 10 μM, 24 hr, Anti-Dox-A549
  G0/G1 (%): 44.3 ± 7.7 %
  G2/M (%): 27.9 ± 1.9 %
  S (%): 11.7 ± 3.7%
  Sub G1 (%): 6.9 ± 4.3%
[5]
  body weight of the experimental mice: did not show significantly change
